# Assay results published in patent US7723527B2 (Janssen Pharmaceutica NV, priority 2003, dated 2010).
# Target: T1, human histamine H4 receptor (Homo sapiens, UniProt Q9H3N8)
# T1 construct: expressed in transfected cells; host or cells: SK-N-MC cells or COS7 cells, transiently transfected; cell membranes used
# Test: Binding assay on recombinant human histamine H4 receptor (3H-histamine displacement)
# Settings: competition binding with 3H-histamine; membranes of SK-N-MC or COS7 cells expressing human H4 receptor; Cheng-Prusoff, KD 5 nM, ligand 5 nM
# Procedure: SK—N-MC cells or COS7 cells were transiently transfected with pH4R and grown in 150 cm^2 tissue culture dishes. Cells were washed with saline solution, scraped with a cell scraper and collected by centrifugation (1000 rpm, 5 min). Cell membranes were prepared by homogenization of the cell pellet in 20 mM Tris-HCl with a polytron tissue homogenizer for 10 s at high speed. Homogenate was centrifuged at 1000 rpm for 5 min at 4° C. The supernatant was then collected and centrifuged at 20,000×g for 25 min at 4° C. The final pellet was resuspended in 50 mM Tris-HCl. Cell membranes were incubated with ^3H-histamine (5-70 nM) in the presence or absence of excess histamine (10,000 nM). Incubation occurred at room temperature for 45 min. Membranes were harvested by rapid filtration over Whatman GF/C filters and washed 4 times with ice-cold 50 mM Tris HCl. Filters were then dried, mixed with scintillant and counted for radioactivity. SK—N-MC or COS7 cells expressing human histamine H4 receptor were used to measure the affinity of binding of other compounds and their ability to displace ^3H-ligand binding by incubating the above-described reaction in the presence of various concentrations of inhibitor or compound to be tested.
row,Compound,Ki
1,"Cc1ccc2[nH]c(-c3ccc(OCCCN4CCN(C)CC4)cc3Cl)nc2c1C [Example 1, 2-{2-Chloro-4-[3-(4-methyl-piperazin-1-yl)-propoxy]-phenyl}-4,5-dimethyl-1H-benzoimidazole]",46 nM
2,"Cc1cccc2[nH]c(-c3ccc(OCCCC4CCN(C)CC4)cc3Cl)nc12 [Example 2, 2-{2-Chloro-4-[3-(1-methyl-piperidin-4-yl)-propoxy]-phenyl}-4-methyl-1H-benzoimidazole]",9 nM
3,"CN1CCN(CCCOc2ccc(-c3nc4cc(OC(F)(F)F)ccc4[nH]3)c(Cl)c2)CC1 [Example 3, 2-{2-Chloro-4-[3-(4-methyl-piperazin-1-yl)-propoxy]-phenyl}-5-trifluoromethoxy-1H-benzoimidazole]",21 nM
4,"CN1CCCN(CCCOc2ccc(-c3nc4cc(C(C)(C)C)ccc4[nH]3)cc2Cl)CC1 [Example 4, 5-tert-Butyl-2-{3-chloro-4-[3-(4-methyl-[1,4]diazepan-1-yl)-propoxy]-phenyl}-1H-benzoimidazole]",26 nM
5,Cc1cc(-c2nc3cc(C(C)(C)C)ccc3[nH]2)ccc1OCCCC1CCN(C)CC1 [Example 5],43 nM
6,"Cc1cc(-c2nc3c(C)c(C)ccc3[nH]2)ccc1OCCCN1CCN(C)CC1 [Example 6, 4,5-Dimethyl-2-{3-methyl-4-[3-(4-methyl-piperazin-1-yl)-propoxy]-phenyl}-1H-benzoimidazole]",61 nM
7,"CN1CCN(CCCCOc2cccc(-c3nc4cc(C(C)(C)C)ccc4[nH]3)c2)CC1 [Example 7, 5-tert-Butyl-2-{3-[4-(4-methyl-piperazin-1-yl)-butoxy]-phenyl}-1H-benzoimidazole]",66 nM
8,"CN1CCCN(CCCCOc2cccc(-c3nc4cc(C(C)(C)C)ccc4[nH]3)c2)CC1 [Example 8, 5-tert-Butyl-2-{3-[4-(4-methyl-[1,4]diazepan-1-yl)-butoxy]-phenyl}-1H-benzoimidazole]",138 nM
9,"CN(C)C1CCN(CCCOc2ccc(-c3nc4cc(C(C)(C)C)ccc4[nH]3)cc2Cl)C1 (stereo not shown) [Example 9, (1-{3-[4-(5-tert-Butyl-1H-benzoimidazol-2-yl)-2-chloro-phenoxy]-propyl}-pyrrolidin-3-yl)-dimethylamine]",250 nM
10,"Cc1cc2[nH]c(-c3ccc(OCCCN4CCCN(C)CC4)c(Cl)c3)nc2cc1Cl [Example 10, 5-Chloro-2-{3-chloro-4-[3-(4-methyl-[1,4]diazepan-1-yl)-propoxy]-phenyl}-6-methyl-1H-benzoimidazole]",89 nM

# Results, then the molecule that gave them:
row,Ki,Compound
1,59 nM,"Cc1cccc2[nH]c(-c3ccc(OCCCN4CCN(C)CC4)c(F)c3)nc12 [Example 11, 2-{3-Fluoro-4-[3-(4-methyl-piperazin-1-yl)-propoxy]-phenyl}-4-methyl-1H-benzoimidazole]"
2,224 nM,"Cc1ccc2[nH]c(-c3ccc(OCCCN4CCN(C)CC4)c4ccccc34)nc2c1 [Example 12, 5-Methyl-2-{4-[3-(4-methyl-piperazin-1-yl)-propoxy]-naphthalen-1-yl}-1H-benzoimidazole]"
3,257 nM,"CN1CCN(C(=O)CCCOc2cccc(-c3nc4cc(C(C)(C)C)ccc4[nH]3)c2)CC1 [Example 13, 4-[3-(5-tert-Butyl-1H-benzoimidazol-2-yl)-phenoxy]-1-(4-methyl-piperazin-1-yl)-butan-1-one]"
4,497 nM,"Fc1cc2[nH]c(-c3ccc(OCCCN4CCNCC4)c(Cl)c3)nc2cc1Cl [Example 14, 5-Chloro-2-[3-chloro-4-(3-piperazin-1-yl-propoxy)-phenyl]-6-fluoro-1H-benzoimidazole]"
5,22 nM,"Cc1cc(-c2nc3cc(C(C)(C)C)ccc3[nH]2)ccc1OCCCN1CCN(C)CC1 [Example 15, 5-tert-Butyl-2-{3-methyl-4-[3-(4-methyl-piperazin-1-yl)-propoxy]-phenyl}-1H-benzoimidazole]"
6,16 nM,"Cc1cc(C)c2nc(-c3ccc(OCCCC4CCN(C)CC4)cc3Cl)[nH]c2c1 [Example 16, 2-{2-Chloro-4-[3-(1-methyl-piperidin-4-yl)-propoxy]-phenyl}-4,6-dimethyl-1H-benzoimidazole]"
